“Also recorded” adds a separate entry of the source. Like-named read-outs stand apart in the source and are kept apart here. One block for each substance: values may come before it. Where no end group is shown, it is not given here.
Experiments:
[1] = target: T1, ALKR (Aplysia leucokinin-like peptide receptor) (Aplysia californica, UniProt A0A977Q7Q2); experiment: IP1 accumulation assay, CHO-K1 cells transfected with ALKR; format: cell-based; settings: for Active (√ active / × not active): ALKR, tick or cross in column Active (EC50); for EC50: CHO-K1 transiently transfected with ALKR, no promiscuous Gαq, ALK1 n = 13, ALK2 n = 4, others n = 3; for Activation of ALKR (in words): IP1 accumulation in CHO-K1 transfected with ALKR
T1 sequence (A0A977Q7Q2 1-429): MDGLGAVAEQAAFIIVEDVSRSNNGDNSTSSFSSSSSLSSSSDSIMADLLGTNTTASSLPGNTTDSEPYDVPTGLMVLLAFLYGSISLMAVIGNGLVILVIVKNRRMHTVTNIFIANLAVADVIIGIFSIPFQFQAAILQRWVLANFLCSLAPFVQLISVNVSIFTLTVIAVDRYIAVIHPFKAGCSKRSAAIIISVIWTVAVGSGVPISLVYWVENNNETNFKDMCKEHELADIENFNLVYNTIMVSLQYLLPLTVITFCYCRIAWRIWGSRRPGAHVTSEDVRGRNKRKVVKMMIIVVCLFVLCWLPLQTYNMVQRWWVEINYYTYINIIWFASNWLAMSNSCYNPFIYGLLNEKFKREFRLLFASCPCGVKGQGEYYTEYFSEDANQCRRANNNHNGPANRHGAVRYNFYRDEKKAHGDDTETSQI
Text: To examine whether the native ALKs could activate the putative ALKR, we expressed the ALKR in Chinese hamster ovary K1 (CHO-K1) cells and examined ALK-mediated changes in the concentration of inositol monophosphate (IP1), a degradation product of the second messenger (inositol trisphosphate) in the Gq signaling pathway upon ligand-induced activation ([88]) (Figs. 4 and S5). […] All endogenous ALK peptides could activate ALKR in a dose-dependent manner (Fig. 4, A–C). […] The lowest EC50 values were for ALK8 (EC50 = 10 nM) and ALK9 (EC50 = 10 nM). The EC50 values for ALK1, ALK2, ALK3, ALK4, ALK5, ALK10, ALK13 were slightly higher than that of ALK9, but there was no statistically significant difference between them (Table S5).
(§1) IP1 accumulation assay measures concentration of IP1 ([88]), that is hydrolyzed from the second messenger, inositol trisphosphate, generated by Gαq pathway when GPCR expressed in CHO-K1 cells is activated by an appropriate ligand. We note two reasons that we selected mammalian CHO-K1 cells for assays for ligand-receptor (GPCR) activity: (1) there are no established molluscan cell lines available; (2) CHO-K1 cells have been extensively utilized not only for vertebrate GPCRs (e.g., ([97])) but also for invertebrate/protostome GPCRs, including other molluscs ([9], [11], [73]), annelids ([8]), jellyfish ([98]), Caenorrhabditis elegans ([99]), and arthropods ([76], [78], [79], [80]). Given that LKRs are only present in protostomes ([6], [7], [66], [67]), an additional advantage of using mammalian cells to assay ligand-receptor activity is that the effects of a possible native LKR in protostome cell lines could be excluded.
(§2) In order to express the Aplysia putative receptor transiently in CHO-K1, the cDNA was cloned into the mammalian expression vector pcDNA3.1(+). […] Transfection experiments were performed when the cells were grown to 70 to 90% confluence. For the ALKR, in each dish (60-mm diameter), 4 μg of the putative receptor plasmids [in pcDNA3.1(+)] were mixed with 400 μl of Opti-MEM (Gibco, 11058021), followed by the addition of 15 μl of Turbofect (Thermo Fisher Scientific, R0531). […] Thus, 3 μg of the putative receptor plasmids [in pcDNA3.1(+)] and 3 μg of promiscuous Gαq protein ([89]) [in pcDNA3.1(+)] were cotransfected in the above procedure for the Anopheles LKR ([8], [10]). The CHO-K1 cells with the reagents added above were mixed gently and incubated at room temperature for 15 min. The DNA/Turbofect mixture dropwise was then added to the dish, and the cells were incubated at 37 °C in 5% CO2 overnight. The next day, the cells were trypsinized and reseeded in opaque white 96-well half-area (Corning, 3688) or 384-well tissue culture–treated plates (Corning, 3570) at a density of 20,000 cells/well in F-12K and 10% FBS and incubated at 37 °C in 5% CO2 overnight. On the third day, the activation of the receptors was detected by monitoring IP1 accumulation using IP1 detection kit (Cisbio, 62IPAPEB) with a Tecan Spark plate reader. Except for using 0.5 × reagents for the anti-IP1-cryptate and IP1-d2 reagents, all other procedures were performed in accordance with the IP1 detection kit manufacturer’s instructions.

Anopheles LKR = target: T2, Anopheles LKR (Anopheles stephensi, UniProt Q694V6); experiment: IP1 accumulation assay, CHO-K1 cells cotransfected with Anopheles LKR and promiscuous Gαq; format: cell-based; settings: log scale, mean ± SEM, n = 3
T2 sequence (Q694V6 1-573): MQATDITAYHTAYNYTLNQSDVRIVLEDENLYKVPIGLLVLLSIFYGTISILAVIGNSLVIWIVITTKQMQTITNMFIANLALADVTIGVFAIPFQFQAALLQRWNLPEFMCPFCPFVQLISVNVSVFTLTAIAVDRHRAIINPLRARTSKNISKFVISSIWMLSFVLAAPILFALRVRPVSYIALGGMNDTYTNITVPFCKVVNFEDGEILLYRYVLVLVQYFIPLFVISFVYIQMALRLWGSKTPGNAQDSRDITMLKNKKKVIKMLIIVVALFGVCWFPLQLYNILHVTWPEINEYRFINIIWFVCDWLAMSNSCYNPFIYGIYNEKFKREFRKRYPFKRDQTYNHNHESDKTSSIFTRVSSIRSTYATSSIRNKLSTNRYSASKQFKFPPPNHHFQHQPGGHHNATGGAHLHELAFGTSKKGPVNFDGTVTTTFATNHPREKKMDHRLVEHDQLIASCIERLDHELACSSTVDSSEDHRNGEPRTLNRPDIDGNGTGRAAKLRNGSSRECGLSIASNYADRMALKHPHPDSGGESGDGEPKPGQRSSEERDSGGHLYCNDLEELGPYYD
Text: Considering the similarity of leucokinin-like peptides in different species (Fig. 1), we sought to evaluate cross-activity between leucokinin peptides and their receptors in different species. We selected A. stephensi because it is a pest, and this would also provide an opportunity to determine if Aplysia LKs could be potentially used as insecticides ([67]). […] Thus, we cotransfected promiscuous Gαq with the Anopheles receptor, whereas there was no cotransfection of promiscuous Gαq for ALKR.
as §1
as §2, with “Except for using 0.5 × reagents for the anti-IP1-cryptate and IP1-d2 reagents, all other procedures were performed in accordance with the IP1 detection kit manufacturer’s instructions.” left out

ALKR L157Q = ALKR L157Q (Aplysia californica, UniProt A0A977Q7Q2, L157Q); experiment: IP1 accumulation assay, ALKR mutant L157Q in CHO-K1; format: cell-based; settings: mutant without FLAG tag, n = 3
ALKR L157Q, sequence (A0A977Q7Q2 entry or part of it L157Q): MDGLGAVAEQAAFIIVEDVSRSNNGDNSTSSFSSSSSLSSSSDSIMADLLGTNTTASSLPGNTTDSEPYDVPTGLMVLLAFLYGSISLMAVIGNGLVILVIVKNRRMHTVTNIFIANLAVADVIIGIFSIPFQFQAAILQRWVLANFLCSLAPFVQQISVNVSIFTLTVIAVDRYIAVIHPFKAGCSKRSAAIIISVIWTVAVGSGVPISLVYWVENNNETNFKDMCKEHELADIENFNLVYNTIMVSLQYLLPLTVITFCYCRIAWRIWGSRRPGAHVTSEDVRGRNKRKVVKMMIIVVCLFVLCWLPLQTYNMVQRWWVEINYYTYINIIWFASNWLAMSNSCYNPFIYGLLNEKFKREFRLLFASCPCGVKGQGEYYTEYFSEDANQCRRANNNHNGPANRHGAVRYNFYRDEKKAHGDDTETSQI
Text: as §1
(§3) In order to express the Aplysia putative receptor transiently in CHO-K1, the cDNA was cloned into the mammalian expression vector pcDNA3.1(+). […] Transfection experiments were performed when the cells were grown to 70 to 90% confluence. […] On the third day, the activation of the receptors was detected by monitoring IP1 accumulation using IP1 detection kit (Cisbio, 62IPAPEB) with a Tecan Spark plate reader. […]

ALKR I329Q = ALKR I329Q (Aplysia californica, UniProt A0A977Q7Q2, I329Q); experiment: IP1 accumulation assay, ALKR mutant I329Q in CHO-K1; format: cell-based
ALKR I329Q, sequence (A0A977Q7Q2 entry or part of it I329Q): as the sequence (A0A977Q7Q2 entry or part of it L157Q) above, with Q157L, I329Q counted along it
Text: as §1, §3

ALKR Q133A = ALKR Q133A (Aplysia californica, UniProt A0A977Q7Q2, Q133A); experiment: IP1 accumulation assay, ALKR mutant Q133A in CHO-K1; format: cell-based
ALKR Q133A, sequence (A0A977Q7Q2 entry or part of it Q133A): as the sequence (A0A977Q7Q2 entry or part of it L157Q) above, with Q133A, Q157L counted along it
Text: as §1, §3

ALKR Y213A = ALKR Y213A (Aplysia californica, UniProt A0A977Q7Q2, Y213A); experiment: IP1 accumulation assay, ALKR mutant Y213A in CHO-K1; format: cell-based
ALKR Y213A, sequence (A0A977Q7Q2 entry or part of it Y213A): as the sequence (A0A977Q7Q2 entry or part of it L157Q) above, with Q157L, Y213A counted along it
Text: as §1, §3

ALKR Q317A = ALKR Q317A (Aplysia californica, UniProt A0A977Q7Q2, Q317A); experiment: IP1 accumulation assay, ALKR mutant Q317A in CHO-K1; format: cell-based
ALKR Q317A, sequence (A0A977Q7Q2 entry or part of it Q317A): as the sequence (A0A977Q7Q2 entry or part of it L157Q) above, with Q157L, Q317A counted along it
Text: as §1, §3

ALKR Q317N = ALKR Q317N (Aplysia californica, UniProt A0A977Q7Q2, Q317N); experiment: IP1 accumulation assay, ALKR mutant Q317N in CHO-K1; format: cell-based
ALKR Q317N, sequence (A0A977Q7Q2 entry or part of it Q317N): as the sequence (A0A977Q7Q2 entry or part of it L157Q) above, with Q157L, Q317N counted along it
Text: as §1, §3

ALKR N314A = ALKR N314A (Aplysia californica, UniProt A0A977Q7Q2, N314A); experiment: IP1 accumulation assay, ALKR mutant N314A in CHO-K1; format: cell-based
ALKR N314A, sequence (A0A977Q7Q2 entry or part of it N314A): as the sequence (A0A977Q7Q2 entry or part of it L157Q) above, with Q157L, N314A counted along it
Text: as §1, §3

[2] = target: Aplysia leucokinin-like peptide receptor (Aplysia californica)
[3] = log scale, IP1 detection kit (Cisbio), mean ± SEM, inactive: greater than highest concentration tested, read-out: log [EC50] on ALKR (converted)
[4] = IP1 accumulation, average, rounded to two significant figures, read-out: EC50 on ALKR

Substance: PAFHSWS-OH [ALK1_nG]
- Active (√ active / × not active) ([1]; IP1 accumulation): ×

Substance: PAFHAWS-NH2 [ALK2]
- EC50 [1, 3]: 21.4 nM

Substance: PAFHSWA-NH2 [ALK1_A7]
- EC50 [1, 3]: 28.2 nM

Substance: PAFHSWS-NH2 [ALK1]
- Activation of ALKR (in words) [1]: active
- EC50 [1, 3]: 13.8 nM
- EC50 (Anopheles LKR): 282 nM
- EC50 (ALKR L157Q; EC50 on ALKR L157Q): 77 nM
- EC50 (ALKR L157Q; log [EC50] on ALKR L157Q, log scale, mean ± SEM): 70.8 nM
- EC50 (ALKR I329Q): 6760 nM
- EC50 (ALKR Q133A): 77.6 nM
- EC50 (ALKR Y213A): 372 nM
- EC50 (ALKR Q317A): 56.2 nM
- EC50 (ALKR Q317N): 25.1 nM
- EC50 (ALKR N314A): 110 nM

- EC50 of IP1 accumulation in CHO-K1 cells transfected with ALKR [2]: 10 nM
Substance: Aplysia leucokinin-like peptide 8

Substance: PRFHAWS-NH2 [ALK7]
- EC50 [1, 3]: 91.2 nM

Substance: PAFHSWS-OH [ALK1-OH]
- EC50 [1, 4]: > 10000 nM
- Activation of ALKR (in words) [1]: not active; also recorded: not able to activate
- EC50 [1, 3]: > 10000 nM

Substance: PAFHSAS-NH2 [ALK1_A6]
- EC50 [1, 4]: > 10000 nM
- Activation of ALKR (in words) [1]: not active
- Active (√ active / × not active) ([1]; IP1 accumulation): ×
- EC50 [1, 3]: > 10000 nM

Substance: PAAHSWS-NH2 [ALK1_A3]
- EC50 [1, 4]: > 10000 nM
- Activation of ALKR (in words) [1]: not active
- Active (√ active / × not active) ([1]; IP1 accumulation): ×
- EC50 [1, 3]: > 10000 nM

Substance: PAFSAWN-NH2 [ALK5]
- EC50 [1, 3]: 10.5 nM

Substance: PAFSPWS-NH2 [ALK9]
- EC50 [1, 3]: 9.77 nM
- EC50 (Anopheles LKR): 724 nM

- EC50 of IP1 accumulation in CHO-K1 cells transfected with ALKR [2]: 32 nM
Substance: Aplysia leucokinin-like peptide 6

Substance: SEKQPAFHAWS-NH2 [ALK6]
- EC50 [1, 3]: 31.6 nM

Substance: PAFASWS-NH2 [ALK1_A4]
- EC50 [1, 3]: 51.3 nM

— PMC9562341, “AI protein structure prediction-based modeling and mutagenesis of a protostome receptor and peptide ligands reveal key residues for their interaction” (The Journal of Biological Chemistry, 2022)
